Drawing on patent US8791123B2, “Substituted pyrazolo[1,5-a]pyrimidine compounds as Trk kinase inhibitors” (Array Biopharma, Inc., priority 2009, dated 2014), this text covers IC50 for 22 molecules.

pIC50: −log10 of the molar value. Read-outs that look alike come from different tables or passages of the source.

In assay [1] the target is TrkA (histidine-tagged recombinant human TrkA, cytoplasmic domain) (Homo sapiens (Human), UniProt P04629). The experiment in a line: TrkA ELISA Assay. Type of assay: biochemical. Particulars: Table 1; ELISA, 500 μM ATP; read-out: TrkA Enzyme IC50. The procedure: An enzyme-linked immunosorbant assay (ELISA) was used to assess TrkA kinase activity in the presence of inhibitors. Immulon 4HBX 384-well microtiter plates (Thermo part #8755) were coated with a 0.025 mg/mL solution of poly (Glu, Ala, Tyr; 6:3:1; Sigma P3899). […] The reaction mixture was removed from the plate by washing with PBS containing 0.1% (v/v) Tween 20. The phosphorylated reaction product was detected using 0.2 μg/mL of a phosphotyrosine specific monoclonal antibody (clone PY20) conjugated to horseradish peroxidase in conjunction with the TMB Peroxidase Substrate System (KPL). After the addition of 1M phosphoric acid, the chromogenic substrate color intensity was quantitated via absorbance at 450 nm.

In a further assay the target is Human Jak2 kinase domain (Homo sapiens (Human), UniProt O60674). The experiment in a line: Jak2 Inhibition Assay (Omnia kinase assay). Type of assay: biochemical. The conditions noted are these: read-out: Jak2 Enzyme IC50. The procedure:
The assays described in Examples C, D, E and F for the determination of JAK1, JAK2, JAK3 and Tyk2 kinase activity, respectively, utilized the Omnia® Kinase fluorescence peptide substrate-based technology (Invitrogen). […] The reactions were therefore read at excitation 360 nm and emission was measured at 485 nm every 50 seconds for 45 minutes using a PerkinElmer EnVision Multilabel Plate Reader.
The final buffer conditions for each of the JAK1, JAK2, JAK3 and Tyk2 assays were as follows: 25 mM HEPES, pH 7.4, 10 mM MgCl2, 0.01% Triton X-100 and 1 mM DTT.
Two-μL aliquots of these were transferred to a fresh plate for a ten-fold intermediate dilution with assay buffer. Five-μL aliquots of the diluted compounds were then transferred to 20-μL of assay mixtures described in Examples C, D, E and F for a final concentration of DMSO of 2%. […] For each plate, percent of control (POC) values were calculated for each well according to the following equation:
[formula] • where • Xmax=Average Uninhibited Controls • Xmin=Average Background IC50's were estimated from the POC's using a standard 4-parameter logistic model:
[formula] • where • A=Minimum Y (Bottom Asymptote) • B=Maximum Y (Top Asymptote) • C=EC50 • D=Slope Factor • X=Compound Concentration (nM) • Y=POC
The IC50 is defined as the concentration of inhibitor at which the POC equals 50 for the fitted curve.
Compounds of Formula I were screened for their ability to inhibit Jak2 using the general enzyme inhibition assay method, in which the assay mixture contained 500 μM ATP, 10 μM Omnia® Y7 peptide (Catalog # IVGN KNZ3071C, Invitrogen Corporation, Carlsbad, Calif.) and 4 nM Jak2 in a total volume of 20 μL. Human Jak2 kinase domain comprising amino acids 808-1132 was purchased from Invitrogen Corporation, Carlsbad, Calif. (catalog # IVGN PV4210).

Where [2] appears, read: Table 1, 500 μM ATP, >1000 nM when >50% inhibition not observed at 1000 nM.

Human Jak2 kinase domain, sequence (O60674 808-1132): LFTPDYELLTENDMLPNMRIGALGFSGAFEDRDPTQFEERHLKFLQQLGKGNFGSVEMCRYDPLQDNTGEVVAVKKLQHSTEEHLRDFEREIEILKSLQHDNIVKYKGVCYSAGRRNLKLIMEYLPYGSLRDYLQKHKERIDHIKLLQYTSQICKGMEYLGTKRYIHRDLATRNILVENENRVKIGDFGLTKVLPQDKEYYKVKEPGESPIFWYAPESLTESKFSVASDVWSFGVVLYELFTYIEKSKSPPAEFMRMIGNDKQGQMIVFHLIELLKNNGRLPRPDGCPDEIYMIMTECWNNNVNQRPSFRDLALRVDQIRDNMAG
TrkA (histidine-tagged recombinant human TrkA, cytoplasmic domain), sequence (P04629 440-796): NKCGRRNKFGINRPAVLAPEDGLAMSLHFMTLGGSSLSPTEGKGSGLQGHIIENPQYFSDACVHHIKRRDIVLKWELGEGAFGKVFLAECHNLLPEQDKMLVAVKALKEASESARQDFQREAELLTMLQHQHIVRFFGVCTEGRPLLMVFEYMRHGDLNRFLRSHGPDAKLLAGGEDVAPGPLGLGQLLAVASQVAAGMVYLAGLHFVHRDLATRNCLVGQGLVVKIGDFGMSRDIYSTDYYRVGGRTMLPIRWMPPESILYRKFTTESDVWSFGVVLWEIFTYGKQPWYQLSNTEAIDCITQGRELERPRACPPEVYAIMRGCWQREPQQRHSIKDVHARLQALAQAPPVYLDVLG

As for `CC(C)[C@@H](CO)NC(=O)c1cnn2ccc(N3CCC[C@@H]3c3cncc(F)c3)nc12` [Example 121, 5-((R)-2-(5-fluoropyridin-3-yl)pyrrolidin-1-yl)-N-((S)-1-hydroxy-3-methylbutan-2-yl)pyrazolo[1,5-a]pyrimidine-3-carboxamide], the pIC50 (usually −log10 of the IC50, conventionally taken in molar units) in assay [1] was 6.74; at Human Jak2 kinase domain (setting [2]), under 6.00.

In the case of `CC(C)(C)NC(=O)c1cnn2ccc(N3CCC[C@@H]3c3cccc(F)c3)nc12` [Example 36, (R)—N-tert-butyl-5-(2-(3-fluorophenyl)pyrrolidin-1-yl)pyrazolo[1,5-a]pyrimidine-3-carboxamide], the results for the pIC50 (in assay [1]; at Human Jak2 kinase domain (setting [2])) were 8.68 and under 6.00, respectively.

In the case of `O=C(NC1CC1)c1cnn2ccc(N3CCC[C@@H]3c3cc(F)ccc3OCC(O)CO)nc12` (stereo partly drawn) [Example 210, N-cyclopropyl-5-((2R)-2-(2-(2,3-dihydroxypropoxy)-5-fluorophenyl)pyrrolidin-1-yl)pyrazolo[1,5-a]pyrimidine-3-carboxamide], the pIC50 in assay [1] is 8.48; at Human Jak2 kinase domain (setting [2]), under 6.00.

As to `O=C(NCCn1ccnc1)c1cnn2ccc(N3CCC[C@@H]3c3cc(F)ccc3F)nc12` [Example 28, (R)—N-(2-(1H-imidazol-1-yl)ethyl)-5-(2-(2,5-difluorophenyl)pyrrolidin-1-yl)pyrazolo[1,5-a]pyrimidine-3-carboxamide], the pIC50 in assay [1] is 8.55; at Human Jak2 kinase domain (setting [2]), under 6.00.

Turning to `Nc1ncc(F)cc1[C@H]1CCCN1c1ccn2ncc(C(=O)N3CCC3)c2n1` [Example 221, (R)-(5-(2-(2-amino-5-fluoropyridin-3-yl)pyrrolidin-1-yl)pyrazolo[1,5-a]pyrimidin-3-yl)(azetidin-1-yl)methanone], the negative logarithm of the IC50 (pIC50) in assay [1] is 7.31; at Human Jak2 kinase domain (setting [2]) it was under 6.00.

For the molecule `COc1ncc(F)cc1[C@H]1CCCN1c1ccn2ncc(C(N)=O)c2n1` [Example 82, (R)-5-(2-(5-fluoro-2-methoxypyridin-3-yl)pyrrolidin-1-yl)pyrazolo[1,5-a]pyrimidine-3-carboxamide], the pIC50 in assay [1] is 8.59; on Human Jak2 kinase domain, under 6.00.

Turning to `COCCOc1cc(F)cc([C@H]2CCCN2c2ccn3ncc(C(=O)NC4CC4)c3n2)c1` [Example 77, (R)—N-cyclopropyl-5-(2-(3-fluoro-5-(2-methoxyethoxy)phenyl)pyrrolidin-1-yl)pyrazolo[1,5-a]pyrimidine-3-carboxamide], the negative logarithm of the IC50 (pIC50) was 8.27 in assay [1] and under 6.00 at Human Jak2 kinase domain (setting [2]).

Take `COc1ncc(F)cc1[C@H]1CCCN1c1ccn2ncc(C(=O)N3CC(O)C3)c2n1` [Example 139, (R)-(5-(2-(5-fluoro-2-methoxypyridin-3-yl)pyrrolidin-1-yl)pyrazolo[1,5-a]pyrimidin-3-yl)(3-hydroxyazetidin-1-yl)methanone]: the values for the pIC50 (in assay [1]; on Human Jak2 kinase domain (setting [2])) were 7.49 and under 6.00, respectively.

On to `Cn1cc(CNC(=O)c2cnn3ccc(N4CCC[C@@H]4c4cc(F)ccc4F)nc23)cn1` [Example 22, (R)-5-(2-(2,5-difluorophenyl)pyrrolidin-1-yl)-N-((1-methyl-1H-pyrazol-4-yl)methyl)pyrazolo[1,5-a]pyrimidine-3-carboxamide], for which the negative logarithm of the IC50 (pIC50) in assay [1] was 8.68; at Human Jak2 kinase domain (setting [2]), under 6.00.

For the molecule `O=C(c1cnn2ccc(N3CCC[C@@H]3c3cncc(F)c3)nc12)N1CC[C@H](O)C1` [Example 128, (5-((R)-2-(5-fluoropyridin-3-yl)pyrrolidin-1-yl)pyrazolo[1,5-a]pyrimidin-3-yl)((S)-3-hydroxypyrrolidin-1-yl)methanone], the negative-log IC50 (pIC50) was 5.59 in assay [1] and under 6.00 at Human Jak2 kinase domain (setting [2]).

For the molecule `C[C@@H](O)CNC(=O)c1cnn2ccc(N3CCC[C@@H]3c3cncc(F)c3)nc12` [Example 110, 5-((R)-2-(5-fluoropyridin-3-yl)pyrrolidin-1-yl)-N-((R)-2-hydroxypropyl)pyrazolo[1,5-a]pyrimidine-3-carboxamide], the figures for the negative logarithm of the IC50 (pIC50) (in assay [1]; on Human Jak2 kinase domain (setting [2])) were 7.43 and under 6.00, respectively.

For `O=C(NOCC1CC1)c1cnn2ccc(N3CCC[C@@H]3c3cc(F)ccc3F)nc12` [Example 66, (R)—N-(cyclopropylmethoxy)-5-(2-(2,5-difluorophenyl)pyrrolidin-1-yl)pyrazolo[1,5-a]pyrimidine-3-carboxamide], the negative logarithm of the IC50 (pIC50) was 9.24 in assay [1] and under 6.00 on Human Jak2 kinase domain (setting [2]).

Take `Cc1ncc(F)cc1[C@H]1CCCN1c1ccn2ncc(C(=O)N[C@@H]3CCC[C@H]3O)c2n1` [Example 197, 5-((R)-2-(5-fluoro-2-methylpyridin-3-yl)pyrrolidin-1-yl)-N-((1R,2R)-2-hydroxycyclopentyl)pyrazolo[1,5-a]pyrimidine-3-carboxamide]: the values for the pIC50 (in assay [1]; on Human Jak2 kinase domain (setting [2])) were 8.32 and under 6.00, respectively.

In the case of `O=C(c1cnn2ccc(N3CCC[C@@H]3c3cc(F)ccc3F)nc12)N1CC[C@@H](O)C1` [Example 19, (5-((R)-2-(2,5-difluorophenyl)pyrrolidin-1-yl)pyrazolo[1,5-a]pyrimidin-3-yl)((R)-3-hydroxypyrrolidin-1-yl)methanone], the pIC50 is 7.13 in assay [1] and under 6.00 at Human Jak2 kinase domain (setting [2]).

For the molecule `CC(C)[C@@H](CO)NC(=O)c1cnn2ccc(N3CCC[C@@H]3c3cc(F)ccc3F)nc12` [Example 179, 5-((R)-2-(2,5-difluorophenyl)pyrrolidin-1-yl)-N-((S)-1-hydroxy-3-methylbutan-2-yl)pyrazolo[1,5-a]pyrimidine-3-carboxamide], the pIC50 in assay [1] was 8.07; at Human Jak2 kinase domain (setting [2]) it was under 6.00.

Regarding `CC(C)(C)[C@@H](CO)NC(=O)c1cnn2ccc(N3CCC[C@@H]3c3cc(F)ccc3F)nc12` [Example 180, 5-((R)-2-(2,5-difluorophenyl)pyrrolidin-1-yl)-N-((S)-1-hydroxy-3,3-dimethylbutan-2-yl)pyrazolo[1,5-a]pyrimidine-3-carboxamide], the pIC50 in assay [1] is 7.91; at Human Jak2 kinase domain (setting [2]), under 6.00.

For `C[C@@H](O)[C@H](CO)NC(=O)c1cnn2ccc(N3CCC[C@@H]3c3cc(F)ccc3F)nc12` [Example 174, 5-((R)-2-(2,5-difluorophenyl)pyrrolidin-1-yl)-N-((2S,3R)-1,3-dihydroxybutan-2-yl)pyrazolo[1,5-a]pyrimidine-3-carboxamide], the negative-log IC50 (pIC50) was 7.79 in assay [1] and under 6.00 at Human Jak2 kinase domain (setting [2]).

Take `C[C@H](NC(=O)c1cnn2ccc(N3[C@@H](c4cncc(F)c4)CC[C@@]3(C)CO)nc12)C(F)(F)F` [Example 220, 5-((2S,5R)-5-(5-fluoropyridin-3-yl)-2-(hydroxymethyl)-2-methylpyrrolidin-1-yl)-N—((S)-1,1,1-trifluoropropan-2-yl)pyrazolo[1,5-a]pyrimidine-3-carboxamide]: the negative logarithm of the IC50 (pIC50) in assay [1] was 6.96; on Human Jak2 kinase domain, under 6.00.

Consider `O=C(NC[C@H](O)CO)c1cnn2ccc(N3CCC[C@@H]3c3cc(F)ccc3C(F)(F)F)nc12` [Example 62, N—((S)-2,3-dihydroxypropyl)-5-((R)-2-(5-fluoro-2-(trifluoromethyl)phenyl)pyrrolidin-1-yl)pyrazolo[1,5-a]pyrimidine-3-carboxamide], for which the pIC50 is 8.60 in assay [1] and under 6.00 at Human Jak2 kinase domain (setting [2]).

As for `COCC(O)CNC(=O)c1cnn2ccc(N3CCCC3c3cncc(F)c3)nc12` [Example 119, 5-((R)-2-(5-fluoropyridin-3-yl)pyrrolidin-1-yl)-N-(2-hydroxy-3-methoxypropyl)pyrazolo[1,5-a]pyrimidine-3-carboxamide], the pIC50 in assay [1] was 6.88; on Human Jak2 kinase domain (setting [2]), under 6.00.

Regarding `O=C(N[C@@H]1CCCC[C@H]1O)c1cnn2ccc(N3CCC[C@@H]3c3cncc(F)c3)nc12` [Example 136, 5-((R)-2-(5-fluoropyridin-3-yl)pyrrolidin-1-yl)-N-((1R,2R)-2-hydroxycyclohexyl)pyrazolo[1,5-a]pyrimidine-3-carboxamide], the pIC50 is 7.58 in assay [1] and under 6.00 on Human Jak2 kinase domain (setting [2]).

In the case of `CC(C)NC(=O)c1cnn2ccc(N3[C@H](CO)CC[C@@H]3c3cncc(F)c3)nc12` [Example 215, 5-((2R,5S)-2-(5-fluoropyridin-3-yl)-5-(hydroxymethyl)pyrrolidin-1-yl)-N-isopropylpyrazolo[1,5-a]pyrimidine-3-carboxamide], the negative-log IC50 (pIC50) in assay [1] is 7.82; at Human Jak2 kinase domain (setting [2]), under 6.00.
